Results published in paper PMC7356367, “Design, Synthesis, and Biological Evaluation of 8-Mercapto-3,7-Dihydro-1H-Purine-2,6-Diones as Potent Inhibitors of SIRT1, SIRT2, SIRT3, and SIRT5” (Molecules, 2020).

Legend:
SIRT3 = biological target: T1, SIRT3 (Homo sapiens, UniProt Q9NTG7); experiment: Fluorescent deacetylation assay with internally quenched acetyl peptide and trypsin development, SIRT3
T1 sequence (Q9NTG7 118-399): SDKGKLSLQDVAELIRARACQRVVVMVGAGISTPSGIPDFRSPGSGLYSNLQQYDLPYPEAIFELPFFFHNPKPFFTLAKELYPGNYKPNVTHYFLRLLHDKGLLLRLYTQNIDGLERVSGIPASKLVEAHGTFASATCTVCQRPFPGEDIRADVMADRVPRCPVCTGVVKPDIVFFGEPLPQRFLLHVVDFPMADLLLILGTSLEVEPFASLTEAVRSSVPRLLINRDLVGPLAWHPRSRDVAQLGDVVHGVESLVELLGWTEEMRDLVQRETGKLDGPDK
Source text: An internally quenched fluorescent peptide (sequence: Abz-GVLKAcAYNO2GV-NH2; Abz: 2-aminobenzoyl; KAc, acetyl lysine; YNO2, 3-nitro-L-tyrosine) was used as the substrate [24]. After deacetylation by SIRT3, the substrate was hydrolyzed by trypsin to produce a fluorescent Abz-peptide (sequence: Abz-GVLK), which can be quantified by measuring the fluorescence of Abz at 420 nm with the excitation wavelength of 320 nm (Figure 2A).

SIRT2 [1] = biological target: T2, SIRT2 (Homo sapiens, UniProt Q8IXJ6); experiment: Fluorescent deacetylation assay, SIRT2
T2 sequence (Q8IXJ6 1-389): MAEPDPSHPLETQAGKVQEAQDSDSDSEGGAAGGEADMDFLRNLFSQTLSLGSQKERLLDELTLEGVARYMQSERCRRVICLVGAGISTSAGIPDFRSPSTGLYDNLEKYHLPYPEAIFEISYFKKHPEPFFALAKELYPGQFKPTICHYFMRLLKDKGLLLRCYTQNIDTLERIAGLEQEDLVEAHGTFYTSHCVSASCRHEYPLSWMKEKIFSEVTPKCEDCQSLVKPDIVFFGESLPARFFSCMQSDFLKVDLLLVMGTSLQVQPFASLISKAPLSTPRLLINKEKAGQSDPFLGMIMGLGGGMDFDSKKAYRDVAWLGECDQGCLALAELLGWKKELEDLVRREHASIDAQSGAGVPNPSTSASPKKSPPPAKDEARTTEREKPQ

SIRT1 [2] = biological target: T3, SIRT1 (Homo sapiens, UniProt Q96EB6); experiment: Fluorescent deacetylation assay, SIRT1; type: biochemical; conditions: 0.8 μM SIRT1, 10 μM acetyl-peptide, 1.2 mM NAD+
T3 construct: Human SIRT1 (183-505-(GGGS)2-641-665); His6 with sumo-cleavage site (N); made in house; host or cells: E. coli BL21
T3 sequence (Q96EB6 with tags, fused parts or gaps): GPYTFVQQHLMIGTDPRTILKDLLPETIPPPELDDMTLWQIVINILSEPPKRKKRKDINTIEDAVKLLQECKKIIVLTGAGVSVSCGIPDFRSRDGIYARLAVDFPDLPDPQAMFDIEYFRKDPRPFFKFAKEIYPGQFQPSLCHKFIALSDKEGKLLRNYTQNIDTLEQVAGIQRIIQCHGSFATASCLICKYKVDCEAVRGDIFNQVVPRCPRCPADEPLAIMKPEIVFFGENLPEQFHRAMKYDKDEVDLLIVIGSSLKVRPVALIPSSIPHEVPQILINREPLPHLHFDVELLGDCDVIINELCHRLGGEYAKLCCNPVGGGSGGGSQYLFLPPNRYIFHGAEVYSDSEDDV
Experimental: All compounds were dissolved in 10 mM stock solution in DMSO. […] The fluorescence was measured using a microplate reader (SpectraMax M5, Molecular Devices, San Jose, CA, USA) with excitation at 320 nm and emission at 420 nm. All reactions were done in triplicate.
IC50 were determined for other sirtuins using the same assay as for SIRT3.

SIRT6 = SIRT6 (Homo sapiens, UniProt Q8N6T7); experiment: Fluorescent deacetylation assay, SIRT6
SIRT6, sequence (Q8N6T7 whole entry): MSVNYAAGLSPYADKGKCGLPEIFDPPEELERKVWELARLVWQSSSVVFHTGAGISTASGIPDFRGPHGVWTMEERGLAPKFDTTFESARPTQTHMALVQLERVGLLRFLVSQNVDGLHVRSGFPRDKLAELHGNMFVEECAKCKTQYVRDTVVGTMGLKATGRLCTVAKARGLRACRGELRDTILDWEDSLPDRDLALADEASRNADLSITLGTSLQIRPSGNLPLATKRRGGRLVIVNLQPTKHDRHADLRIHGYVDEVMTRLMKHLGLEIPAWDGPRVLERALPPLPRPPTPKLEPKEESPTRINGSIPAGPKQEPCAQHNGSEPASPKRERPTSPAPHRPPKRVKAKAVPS

SIRT5 = biological target: T4, SIRT5 (Homo sapiens, UniProt Q9NXA8); experiment: Fluorescent deacylation assay (succinyl-peptide), SIRT5
T4 sequence (Q9NXA8 37-310): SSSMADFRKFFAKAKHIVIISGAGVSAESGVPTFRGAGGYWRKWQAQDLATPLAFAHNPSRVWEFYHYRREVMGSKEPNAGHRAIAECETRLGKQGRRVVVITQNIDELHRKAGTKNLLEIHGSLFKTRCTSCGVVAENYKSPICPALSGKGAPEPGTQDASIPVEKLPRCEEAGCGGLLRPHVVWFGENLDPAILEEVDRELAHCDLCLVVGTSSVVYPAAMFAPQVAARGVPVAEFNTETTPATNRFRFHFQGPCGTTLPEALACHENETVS

SIRT1 [3] = conditions: Figure 1, reported sirtuin inhibitors; cited from earlier work
SIRT2 [4] = conditions: Figure 1, reported sirtuin inhibitors; cited from earlier work
SH-SY5Y cells = experiment: MTT assay for toxicity; type: cell-based; conditions: 24 hours
Experimental: To evaluate the toxicity of the compounds, we carried out MTT assays on SH-SY5Y
cells incubated with various concentrations of compounds 4 and 15 for 24 hours. We […]

[5] = Stability in the assay buffer and activity assay by HPLC; conditions: overall statement
Source text: (§1) To examine the stability of the compound, we analyzed the solution sample of
Further, we determined the
(§2) compound in the assay buffer without SIRT3, and the compound after the
(§3) deacetylation catalyzed by SIRT3 by using HPLC.
(§4) To address whether SIRT3 might cause any
(§5) catalyzed by SIRT3 (Figure S3C and S3E).

[6] = Stability of DMSO solution by mass spectrometry; conditions: nine months, refrigerator 4 °C
Source text: as §1
Further, we determined the
as §2, §3, §4, §5

Structure (SMILES)	IC50 (SIRT3) [µM]	melting point [°C]	IC50 (SIRT2 [1]) [µM]	IC50 (SIRT1 [2]) [µM]	IC50 (SIRT6) [µM]	IC50 (SIRT5) [µM]	also measured
CCn1c(=O)n(CC2CCCO2)c(=O)c2[nH]c(SSc3nc4c([nH]3)c(=O)n(CC3CCCO3)c(=O)n4CC)nc21 (stereo not drawn) [Compound 14, 8,8’-Disulfanediylbis(3-ethyl-1-((tetrahydrofuran-2-yl)methyl)-3,7-dihydro-1H-purine-2,6-dione)]	0.69 ± 0.12	166 to 168	1.62 ± 0.05	0.15 ± 0.02	127 ± 10.2	0.54 ± 0.02	Fold enhanced activity compared to compound 12 (SIRT3) (SIRT3; relative to compound 12): 2.5 fold
CCn1c(=O)n(CCC(=O)Nc2cccc(C(F)(F)F)c2)c(=O)c2[nH]c(SSc3nc4c([nH]3)c(=O)n(CCC(=O)Nc3cccc(C(F)(F)F)c3)c(=O)n4CC)nc21 [Compound 19, 3,3’-(Disulfanediylbis(3-ethyl-2,6-dioxo-2,3,6,7-tetrahydro-1H-purine-8,1-diyl))bis(N-(3-(trifluoromethyl)phenyl)propanamide)]	8.52 ± 0.22	174 to 175	9.44 ± 0.19	1.87 ± 0.04	452 ± 9.8	26.1 ± 3.15	Fold reduced inhibitory activity compared with 15 (SIRT3) (SIRT3; relative to compound 15): 23 fold
CCn1c(=O)n(CCc2ccc(F)cc2)c(=O)c2[nH]c(SSc3nc4c([nH]3)c(=O)n(CCc3ccc(F)cc3)c(=O)n4CC)nc21 [Compound 16, 8,8’-Disulfanediylbis(3-ethyl-1-(4-fluorophenethyl)-3,7-dihydro-1H-purine-2,6-dione)]	0.46 ± 0.04	216 to 218	2.03 ± 0.04	0.19 ± 0.01	111 ± 2.6	0.84 ± 0.08	
CC(C(=O)Nc1cccc(/N=C/c2c(O)ccc3ccccc23)c1)c1ccccc1 (stereo not drawn) [salermide]							IC50 (SIRT1 [3]): 76 µM; IC50 (SIRT2 [4]): 45 µM
CCn1c(=O)n(CCc2ccc(N)cc2)c(=O)c2[nH]c(SSc3nc4c([nH]3)c(=O)n(CCc3ccc(N)cc3)c(=O)n4CC)nc21 [Compound 20, 8,8’-Disulfanediylbis(1-(4-aminophenethyl)-3-ethyl-3,7-dihydro-1H-purine-2,6-dione)]	0.97 ± 0.06		4.61 ± 0.13	0.49 ± 0.01	210 ± 5.9	0.92 ± 0.04	
CCn1c(=O)n(CCc2ccc(OC)cc2)c(=O)c2[nH]c(SSc3nc4c([nH]3)c(=O)n(CCc3ccc(OC)cc3)c(=O)n4CC)nc21 [Compound 18, 8,8’-Disulfanediylbis(3-ethyl-1-(4-methoxyphenethyl)-3,7-dihydro-1H-purine-2,6-dione)]		216 to 219	2.16 ± 0.08		102 ± 9.1		
CCn1c(=O)n(CCc2ccc(NC(=O)OC(C)(C)C)cc2)c(=O)c2[nH]c(SSc3nc4c([nH]3)c(=O)n(CCc3ccc(NC(=O)OC(C)(C)C)cc3)c(=O)n4CC)nc21 [Compound 17, di-tert-Butyl(((Disulfanediylbis(3-ethyl-2,6-dioxo-2,3,6,7-tetrahydro-1H-purine-8,1-diyl))bis(ethane-2,1-diyl))bis(4,1-phenylene))dicarbamate]	1.15 ± 0.08	168 to 171	2.19 ± 0.08	0.41 ± 0.04	128 ± 4.1	1 ± 0.03	
CCn1c(=O)n(CCc2ccccc2)c(=O)c2[nH]c(SSc3nc4c([nH]3)c(=O)n(CCc3ccccc3)c(=O)n4CC)nc21 [Compound 15, 8,8’-Disulfanediylbis(3-ethyl-1-phenethyl-3,7-dihydro-1H-purine-2,6-dione)]		225 to 227	1.35 ± 0.05		103 ± 6.3	0.45 ± 0.01	Toxicity (MTT) at 50 μM (SH-SY5Y cells): displayed toxicity; Toxicity (MTT) at concentrations up to 20 μM (SH-SY5Y cells): nontoxic; Stability in the activity assays [5]: stable
CCn1c(=O)n(CC2CCOCC2)c(=O)c2[nH]c(SSc3nc4c([nH]3)c(=O)n(CC3CCOCC3)c(=O)n4CC)nc21 [Compound 13, 8,8’-Disulfanediylbis(3-ethyl-1-((tetrahydro-2H-pyran-4-yl)methyl)-3,7-dihydro-1H-purine-2,6-dione)]		229 to 231	2.25 ± 0.12		156 ± 6.5	0.5 ± 0.01	
CCn1c(=O)c2[nH]c(SSc3nc4c([nH]3)c(=O)n(CC)c(=O)n4CC)nc2n(CC)c1=O [Compound 1, 8,8′-Disulfanediylbis(1,3-diethyl-3,7-dihydro-1H-purine-2,6-dione)]			1.17 ± 0.04		116 ± 6.2	0.42 ± 0.01	Stability in DMSO [6]: remains stable; Stability in the activity assays [5]: stable in the activity assays
CCn1c(=O)n(CC(C)C)c(=O)c2[nH]c(SSc3nc4c([nH]3)c(=O)n(CC(C)C)c(=O)n4CC)nc21 [Compound 12, 8,8’-Disulfanediylbis(3-ethyl-1-isobutyl-3,7-dihydro-1H-purine-2,6-dione)]	1.77 ± 0.05	240 to 242	4.86 ± 0.08	0.43 ± 0.03	297 ± 11.3	1.51 ± 0.1	
CS(=O)(=O)NCCC1CCN(c2ncnc3cc(C(N)=O)sc23)CC1 [ELT-31, reference compound]			0.12 ± 0.01		462 ± 14.9	> 500	
Cc1ccc(C(=O)Nc2ccc(S(=O)(=O)O)c3cc(S(=O)(=O)O)cc(S(=O)(=O)O)c23)cc1NC(=O)c1cccc(NC(=O)Nc2cccc(C(=O)Nc3cc(C(=O)Nc4ccc(S(=O)(=O)O)c5cc(S(=O)(=O)O)cc(S(=O)(=O)O)c45)ccc3C)c2)c1 [suramin]							IC50 (SIRT2 [4]): 1.2 µM
CCCn1c(=O)c2[nH]c(SSc3nc4c([nH]3)c(=O)n(CCC)c(=O)n4CCC)nc2n(CCC)c1=O [Compound 4, 8,8’-Disulfanediylbis(1,3-dipropyl-3,7-dihydro-1H-purine-2,6-dione)]		241 to 243	1.19 ± 0.06		129 ± 16.1	0.39 ± 0.03	Toxicity (MTT) at 50 μM (SH-SY5Y cells): displayed toxicity; Toxicity (MTT) at concentrations up to 20 μM (SH-SY5Y cells): nontoxic
